Laboratory results taken from the NIST ThermoML archive (doi:10.1016/j.fluid.2004.10.023).
± gives the expanded uncertainty stated by the source.

Settings: Liquid, Closed cell (Static) method

| SMILES | vapor or sublimation pressure (318.4 K) [kPa] | further results |
| --- | --- | --- |
| C=CCC [1-butene] |  | vapor or sublimation pressure (318.42 K): 525.55 ± 2.3 kPa |
| CC(C)C [2-methylpropane] |  | vapor or sublimation pressure (318.39 K): 607.54 ± 2.6 kPa |
| C=C(C)C [2-methylpropene] | 538.15 ± 2.3 |  |
| C/C=C\C [(Z)-2-butene] | 391.45 ± 1.8 |  |
| CCCC [butane] | 436.55 ± 1.9 |  |
| CCOC(C)=O [ethyl acetate] | 31.37 ± 0.42 |  |
